Assay results: patent US20260262643A1, “HERBICIDAL BENZOXAZINES” (FMC CORPORATION, priority 2022, published 2026)

Legend:
barnyardgrass [1] = experiment: Test C preemergence; assay type: in vivo, Echinochloa crusgalli
Procedure, shortened: (§1)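 Test material, in non-phytotoxic solvent with surfactant, was sprayed on the soil directly after seeding (preemergence) or on young plants of 2–10 cm with one to two leaves (postemergence). Greenhouse, 10 days; 0–100 visual control scale.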

sedge, umbrella = experiment: Test D flooded paddy test; assay type: in vivo, Cyperus difformis; details: 250 g ai/ha, applied to paddy water, visual rating after 13 to 14 days, scale 0 to 100 (0 no effect, 100 complete control)
Procedure, shortened: (§2)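 At the 2-leaf stage, floodwater 3 cm deep received the test compound; that depth persisted throughout. Plants scored visually 13 to 14 days on, 0 (no effect) to 100 (complete control), dash indicating no result.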

corn [2] = experiment: Test C preemergence; assay type: in vivo, Zea mays
Procedure, shortened: as §1

wheat [3] = experiment: Test C postemergence; assay type: in vivo, Triticum aestivum; details: 10 days, 0 to 100 scale (0 no effect, 100 complete control)
Procedure, shortened: as §1

oat, wild [4] = experiment: Test C postemergence; assay type: in vivo, Avena fatua; details: 10 days, 0 to 100 scale (0 no effect, 100 complete control)
Procedure, shortened: as §1

ryegrass, Italian [5] = experiment: Test C postemergence; assay type: in vivo, Lolium multiflorum; details: 10 days, 0 to 100 scale (0 no effect, 100 complete control)
Procedure, shortened: as §1

pigweed, palmer [6] = experiment: Test C preemergence; assay type: in vivo, Amaranthus palmeri
Procedure, shortened: as §1

ragweed [7] = experiment: Test C postemergence; assay type: in vivo, Ambrosia artemisiifolia; details: 10 days, 0 to 100 scale (0 no effect, 100 complete control)
Procedure, shortened: as §1

horseweed = experiment: Test C postemergence; assay type: in vivo, Erigeron canadensis; details: 10 days, 0 to 100 scale (0 no effect, 100 complete control)
Procedure, shortened: as §1

wheat [8] = experiment: Test C preemergence; assay type: in vivo, Triticum aestivum
Procedure, shortened: as §1

ragweed [9] = experiment: Test C preemergence; assay type: in vivo, Ambrosia artemisiifolia
Procedure, shortened: as §1

ryegrass, Italian [10] = experiment: Test C preemergence; assay type: in vivo, Lolium multiflorum
Procedure, shortened: as §1

corn [11] = experiment: Test C postemergence; assay type: in vivo, Zea mays; details: 10 days, 0 to 100 scale (0 no effect, 100 complete control)
Procedure, shortened: as §1

green foxtail [12] = experiment: Test C postemergence; assay type: in vivo, Setaria viridis; details: 10 days, 0 to 100 scale (0 no effect, 100 complete control)
Procedure, shortened: as §1

blackgrass [13] = experiment: Test C preemergence; assay type: in vivo, Alopecurus myosuroides
Procedure, shortened: as §1

kochia [14] = experiment: Test C postemergence; assay type: in vivo, Bassia scoparia; details: 10 days, 0 to 100 scale (0 no effect, 100 complete control)
Procedure, shortened: as §1

ducksalad = experiment: Test D flooded paddy test; assay type: in vivo, Heteranthera limosa; details: 250 g ai/ha, applied to paddy water, visual rating after 13 to 14 days, scale 0 to 100 (0 no effect, 100 complete control)
Procedure, shortened: as §2

barnyardgrass [15] = experiment: Test C postemergence; assay type: in vivo, Echinochloa crusgalli; details: 10 days, 0 to 100 scale (0 no effect, 100 complete control)
Procedure, shortened: as §1

pigweed, palmer [16] = experiment: Test C postemergence; assay type: in vivo, Amaranthus palmeri; details: 10 days, 0 to 100 scale (0 no effect, 100 complete control)
Procedure, shortened: as §1

rice = experiment: Test D flooded paddy test; assay type: in vivo, Oryza sativa; details: 250 g ai/ha, applied to paddy water, visual rating after 13 to 14 days, scale 0 to 100 (0 no effect, 100 complete control)
Procedure, shortened: as §2

galium = experiment: Test C postemergence; assay type: in vivo, Galium aparine; details: 10 days, 0 to 100 scale (0 no effect, 100 complete control)
Procedure, shortened: as §1

soybean [17] = experiment: Test C preemergence; assay type: in vivo, Glycine max
Procedure, shortened: as §1

green foxtail [18] = experiment: Test C preemergence; assay type: in vivo, Setaria viridis
Procedure, shortened: as §1

oat, wild [19] = experiment: Test C preemergence; assay type: in vivo, Avena fatua
Procedure, shortened: as §1

kochia [20] = experiment: Test C preemergence; assay type: in vivo, Bassia scoparia
Procedure, shortened: as §1

soybean [21] = experiment: Test C postemergence; assay type: in vivo, Glycine max; details: 10 days, 0 to 100 scale (0 no effect, 100 complete control)
Procedure, shortened: as §1

barnyardgrass [22] = experiment: Test D flooded paddy test; assay type: in vivo, Echinochloa crus-galli; details: 250 g ai/ha, applied to paddy water, visual rating after 13 to 14 days, scale 0 to 100 (0 no effect, 100 complete control)
Procedure, shortened: as §2

blackgrass [23] = experiment: Test C postemergence; assay type: in vivo, Alopecurus myosuroides; details: 10 days, 0 to 100 scale (0 no effect, 100 complete control)
Procedure, shortened: as §1

[24] = 500 g ai/ha, preemergence, 0 to 100 scale (0 no effect, 100 complete control)
[25] = Preemergence, 125 g ai/ha, 0 to 100 scale, 0 no effect, 100 complete control

CCOCC1CN(C(=O)c2cc(-n3cnc(C4CCC4)n3)ccc2OC)c2cccc(Cl)c2O1 (stereo not shown) [Compound 377]
55: Plant response rating, Sedge, Umbrella (Flood) (sedge, umbrella)
40: Plant response rating, Barnyardgrass (barnyardgrass [1]; [25]) | Plant response rating, Ryegrass, Italian (ryegrass, Italian [5]; Postemergence, 125 g ai/ha) | Plant response rating, Foxtail, Green (green foxtail [12]; 500 g ai/ha, postemergence)
70: Ragweed plant response rating (ragweed [9]; [24]) | Ryegrass, Italian plant response rating (ryegrass, Italian [10]; [24]) | Plant response rating, Kochia (kochia [20]; [25])
50: Plant response rating, Ryegrass, Italian (ryegrass, Italian [5]; 500 g ai/ha, postemergence) | Plant response rating, Horseweed (horseweed; Postemergence, 125 g ai/ha) | Plant response rating, Barnyardgrass (barnyardgrass [15]; 500 g ai/ha, postemergence) | Plant response rating, Foxtail, Green (green foxtail [18]; [25])
80: Plant response rating, Ragweed (ragweed [7]; Postemergence, 125 g ai/ha)
30: Plant response rating, Wheat (wheat [3]; 500 g ai/ha, postemergence) | Plant response rating, Horseweed (horseweed; 500 g ai/ha, postemergence) | Plant response rating, Ragweed (ragweed [9]; [25]) | Plant response rating, Corn (corn [11]; 500 g ai/ha, postemergence) | Plant response rating, Barnyardgrass (barnyardgrass [15]; Postemergence, 125 g ai/ha)
90: Plant response rating, Ragweed (ragweed [7]; 500 g ai/ha, postemergence) | Plant response rating, Kochia (kochia [14]; 500 g ai/ha, postemergence) | Plant response rating, Kochia (kochia [14]; Postemergence, 125 g ai/ha) | Plant response rating, Pigweed, Palmer (pigweed, palmer [16]; Postemergence, 125 g ai/ha) | Soybean plant response rating (soybean [17]; [24])
60: Plant response rating, Ryegrass, Italian (ryegrass, Italian [10]; [25]) | Plant response rating, Soybean (soybean [17]; [25])
20: Corn plant response rating (corn [2]; [24]) | Plant response rating, Wheat (wheat [3]; Postemergence, 125 g ai/ha) | Wheat plant response rating (wheat [8]; [24]) | Plant response rating, Corn (corn [11]; Postemergence, 125 g ai/ha) | Plant response rating, Foxtail, Green (green foxtail [12]; Postemergence, 125 g ai/ha) | Blackgrass plant response rating (blackgrass [13]; [24]) | Oat, Wild plant response rating (oat, wild [19]; [24]) | Plant response rating, Oat, Wild (oat, wild [19]; [25]) | Plant response rating, Blackgrass (blackgrass [23]; 500 g ai/ha, postemergence)
0: Plant response rating, Corn (corn [2]; [25]) | Plant response rating, Oat, Wild (oat, wild [4]; 500 g ai/ha, postemergence) | Plant response rating, Oat, Wild (oat, wild [4]; Postemergence, 125 g ai/ha) | Plant response rating, Wheat (wheat [8]; [25]) | Plant response rating, Blackgrass (blackgrass [13]; [25]) | Plant response rating, Rice (Flood) (rice) | Plant response rating, Barnyardgrass (Flood) (barnyardgrass [22]) | Plant response rating, Blackgrass (blackgrass [23]; Postemergence, 125 g ai/ha)
15: Plant response rating, Ducksalad (Flood) (ducksalad)
100: Barnyardgrass plant response rating (barnyardgrass [1]; [24]) | Pigweed, Palmer plant response rating (pigweed, palmer [6]; [24]) | Plant response rating, Pigweed, Palmer (pigweed, palmer [6]; [25]) | Plant response rating, Pigweed, Palmer (pigweed, palmer [16]; 500 g ai/ha, postemergence) | Plant response rating, Galium (galium; 500 g ai/ha, postemergence) | Plant response rating, Galium (galium; Postemergence, 125 g ai/ha) | Foxtail, Green plant response rating (green foxtail [18]; [24]) | Kochia plant response rating (kochia [20]; [24]) | Plant response rating, Soybean (soybean [21]; 500 g ai/ha, postemergence) | Plant response rating, Soybean (soybean [21]; Postemergence, 125 g ai/ha)
